{
  "source": "the supplement of paper PMC7017272",
  "details_in_all_cases": "treatment time: 3 days",
  "key": {"[1]": {"test_system": "UT-SCC-42A", "assay": "maximal % inhibition of viability relative to DMSO; higher = stronger effect", "experimental": "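HNSCC cell lines (500 cells/well, 384-well) were cultured on plastic, on top of (2D) or embedded (3D) in Matrigel or human leiomyoma matrix Myogel (500 ug/mL; Myogel 3D mixed with rat collagen I). Cells were treated for 3 days with 5 ten-fold concentrations of each drug, and viability was read by CellTiter-Glo. Viability was normalised to DMSO and benzethonium chloride controls and fitted with the FIMM DSRT pipeline to give IC50 (nM), maximal % inhibition and DSS. Suffixes _1/_2/_3 are replicates. Only inhibition-mode (IC50) fits are kept.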"}, "[2]": {"test_system": "UT-SCC-40", "assay": "drug sensitivity score (DSS); higher = more sensitive; extreme values may be limits of the assay", "in_short": "(§1)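 Three growth formats were used for HPV-negative HNSCC cell lines in 384-well plates at 500 cells/well: bare plastic, wells coated with Matrigel or Myogel (500 µg/mL), and embedding in Matrigel or Myogel plus rat collagen I. Compounds were added at five 10-fold concentrations, and after 3 days CellTiter-Glo 2.0 luminescence was recorded and normalised to vehicle (0.1% DMSO) and cell-killing control wells. IC50, maximal inhibition and drug sensitivity score came from percent-inhibition dose–response fitting in the FIMM pipeline.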"}, "[3]": {"test_system": "UT-SCC-42B", "assay": "drug sensitivity score (DSS); higher = more sensitive; extreme values may be limits of the assay", "in_short": "as §1"}, "[4]": {"test_system": "UT-SCC-73", "assay": "drug sensitivity score (DSS); higher = more sensitive; extreme values may be limits of the assay", "in_short": "as §1"}, "[5]": {"test_system": "UT-SCC-8", "assay": "drug sensitivity score (DSS); higher = more sensitive; extreme values may be limits of the assay", "in_short": "as §1"}, "[6]": {"test_system": "UT-SCC-28", "assay": "drug sensitivity score (DSS); higher = more sensitive; extreme values may be limits of the assay", "in_short": "as §1"}, "[7]": {"test_system": "UT-SCC-81", "assay": "drug sensitivity score (DSS); higher = more sensitive; extreme values may be limits of the assay", "in_short": "as §1"}, "[8]": {"test_system": "UT-SCC-44", "assay": "drug sensitivity score (DSS); higher = more sensitive; extreme values may be limits of the assay", "in_short": "as §1"}, "[9]": {"test_system": "UT-SCC-106A", "assay": "drug sensitivity score (DSS); higher = more sensitive; extreme values may be limits of the assay", "in_short": "as §1"}, "[10]": {"test_system": "UT-SCC-42A", "assay": "drug sensitivity score (DSS); higher = more sensitive; extreme values may be limits of the assay", "in_short": "as §1"}, "[11]": {"details": "culture condition: embedded in Matrigel"}, "[12]": {"details": "culture condition: embedded in Myogel + collagen I"}, "[13]": {"details": "culture condition: on top of Matrigel"}, "[14]": {"details": "culture condition: on top of Myogel"}, "[15]": {"details": "culture condition: plastic 2D (no matrix)"}},
  "note": "± gives the standard deviation of the averaged measurements.",
  "data": [
    {"smiles": "COc1ncc(-c2ccc3nccc(-c4ccnnc4)c3c2)cc1NS(=O)(=O)c1ccc(F)cc1F", "note": "[Omipalisib]", "values": [
      {"measurement": "maximal % inhibition of viability", "setting": "[1]; [11]", "result": "97.27 ± 0.59", "unit": "%"},
      {"measurement": "maximal % inhibition of viability", "setting": "[1]; [12]", "result": "87.8 ± 1.7", "unit": "%"},
      {"measurement": "maximal % inhibition of viability", "setting": "[1]; [13]", "result": "96.13 ± 0.86", "unit": "%"},
      {"measurement": "maximal % inhibition of viability", "setting": "[1]; [14]", "result": "90.83 ± 0.76", "unit": "%"},
      {"measurement": "maximal % inhibition of viability", "setting": "[1]; [15]", "result": "92.7 ± 1.3", "unit": "%"},
      {"measurement": "drug sensitivity score", "setting": "[2]; [11]", "result": "27.3 ± 0.47", "unit": "DSS"},
      {"measurement": "drug sensitivity score", "setting": "[2]; [12]", "result": "21.5 ± 0.32", "unit": "DSS"},
      {"measurement": "drug sensitivity score", "setting": "[2]; [13]", "result": "26.4 ± 0.84", "unit": "DSS"},
      {"measurement": "drug sensitivity score", "setting": "[2]; [14]", "result": "19.2 ± 1.1", "unit": "DSS"},
      {"measurement": "drug sensitivity score", "setting": "[2]; [15]", "result": "20.6 ± 0.46", "unit": "DSS"},
      {"measurement": "drug sensitivity score", "setting": "[3]; [11]", "result": "24.7 ± 1.2", "unit": "DSS"},
      {"measurement": "drug sensitivity score", "setting": "[3]; [13]", "result": "18.3 ± 1.2", "unit": "DSS"},
      {"measurement": "drug sensitivity score", "setting": "[3]; [14]", "result": "14.1 ± 1.2", "unit": "DSS"},
      {"measurement": "drug sensitivity score", "setting": "[3]; [15]", "result": "15.2 ± 0.4", "unit": "DSS"},
      {"measurement": "drug sensitivity score", "setting": "[4]; [11]", "result": "24.13 ± 0.21", "unit": "DSS"},
      {"measurement": "drug sensitivity score", "setting": "[4]; [12]", "result": "23.1 ± 3.8", "unit": "DSS"},
      {"measurement": "drug sensitivity score", "setting": "[4]; [13]", "result": "23.83 ± 0.15", "unit": "DSS"},
      {"measurement": "drug sensitivity score", "setting": "[4]; [14]", "result": "21.6 ± 0.47", "unit": "DSS"},
      {"measurement": "drug sensitivity score", "setting": "[4]; [15]", "result": "22.2 ± 0.8", "unit": "DSS"},
      {"measurement": "drug sensitivity score", "setting": "[5]; [11]", "result": "27.5 ± 1", "unit": "DSS"},
      {"measurement": "drug sensitivity score", "setting": "[5]; [12]", "result": "24.1 ± 4.4", "unit": "DSS"},
      {"measurement": "drug sensitivity score", "setting": "[5]; [13]", "result": "24.5 ± 0.1", "unit": "DSS"},
      {"measurement": "drug sensitivity score", "setting": "[5]; [14]", "result": "23.7 ± 0.44", "unit": "DSS"},
      {"measurement": "drug sensitivity score", "setting": "[5]; [15]", "result": "25 ± 0.83", "unit": "DSS"},
      {"measurement": "drug sensitivity score", "setting": "[6]; [11]", "result": "18.7 ± 3.2", "unit": "DSS"},
      {"measurement": "drug sensitivity score", "setting": "[6]; [12]", "result": "18.7 ± 1.8", "unit": "DSS"},
      {"measurement": "drug sensitivity score", "setting": "[6]; [13]", "result": "18.1 ± 1.6", "unit": "DSS"},
      {"measurement": "drug sensitivity score", "setting": "[6]; [15]", "result": "16.8 ± 0.21", "unit": "DSS"},
      {"measurement": "drug sensitivity score", "setting": "[7]; [11]", "result": "28.53 ± 0.15", "unit": "DSS"},
      {"measurement": "drug sensitivity score", "setting": "[7]; [12]", "result": "21.9 ± 1.9", "unit": "DSS"},
      {"measurement": "drug sensitivity score", "setting": "[7]; [13]", "result": "26.8 ± 0.32", "unit": "DSS"},
      {"measurement": "drug sensitivity score", "setting": "[7]; [14]", "result": "21 ± 0.1", "unit": "DSS"},
      {"measurement": "drug sensitivity score", "setting": "[7]; [15]", "result": "22.6 ± 1.5", "unit": "DSS"},
      {"measurement": "drug sensitivity score", "setting": "[8]; [11]", "result": "15.7 ± 2.2", "unit": "DSS"},
      {"measurement": "drug sensitivity score", "setting": "[8]; [12]", "result": "13.9 ± 1.6", "unit": "DSS"},
      {"measurement": "drug sensitivity score", "setting": "[8]; [13]", "result": "14 ± 1.9", "unit": "DSS"},
      {"measurement": "drug sensitivity score", "setting": "[8]; [14]", "result": "14.2 ± 2", "unit": "DSS"},
      {"measurement": "drug sensitivity score", "setting": "[8]; [15]", "result": "12.4 ± 0.21", "unit": "DSS"},
      {"measurement": "drug sensitivity score", "setting": "[9]; [11]", "result": "22.8 ± 0.99", "unit": "DSS"},
      {"measurement": "drug sensitivity score", "setting": "[9]; [12]", "result": "15.4 ± 0.89", "unit": "DSS"},
      {"measurement": "drug sensitivity score", "setting": "[9]; [13]", "result": "22.33 ± 0.15", "unit": "DSS"},
      {"measurement": "drug sensitivity score", "setting": "[9]; [14]", "result": "15 ± 1.2", "unit": "DSS"},
      {"measurement": "drug sensitivity score", "setting": "[9]; [15]", "result": "21.9 ± 0.46", "unit": "DSS"},
      {"measurement": "drug sensitivity score", "setting": "[10]; [11]", "result": "20.8 ± 3.1", "unit": "DSS"},
      {"measurement": "drug sensitivity score", "setting": "[10]; [12]", "result": "18.2 ± 0.85", "unit": "DSS"},
      {"measurement": "drug sensitivity score", "setting": "[10]; [13]", "result": "21.1 ± 2.2", "unit": "DSS"},
      {"measurement": "drug sensitivity score", "setting": "[10]; [14]", "result": "18.6 ± 0.96", "unit": "DSS"},
      {"measurement": "drug sensitivity score", "setting": "[10]; [15]", "result": "21.6 ± 2.3", "unit": "DSS"}
    ]}
  ]
}
